Read-outs that look alike come from different tables or passages of the source.
Target: T1, human GnRH receptor (Homo sapiens, UniProt P30968)
T1 construct: expressed in transfected cells; host or cells: HEK 293 (hGnRH-R/293, from Dr. Stuart Sealfon)
T1 sequence (P30968 1-328): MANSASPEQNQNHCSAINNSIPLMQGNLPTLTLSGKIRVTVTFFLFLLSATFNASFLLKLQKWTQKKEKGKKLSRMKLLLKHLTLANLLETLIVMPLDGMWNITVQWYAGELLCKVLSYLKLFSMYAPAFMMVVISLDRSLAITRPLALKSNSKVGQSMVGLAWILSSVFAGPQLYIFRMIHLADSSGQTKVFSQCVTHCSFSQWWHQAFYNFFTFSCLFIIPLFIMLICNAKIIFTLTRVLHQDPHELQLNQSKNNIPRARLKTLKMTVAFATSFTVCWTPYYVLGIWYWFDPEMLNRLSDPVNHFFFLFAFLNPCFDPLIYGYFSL
Assay: Radioligand binding, 125I-GnRH-A displacement, membranes of HEK 293 cells with human GnRH receptor
Details: for remaining activity at 10 µM / remaining activity at 1 µM: substrate remaining, closer to zero = closer to 100% inhibition; for remaining activity at 10 µM: 10 uM compound, read-out: S%R 10 uM hGnRHR; for remaining activity at 1 µM: 1 uM compound, read-out: S%R 1 uM hGnRHR; for IC50: read-out: hGnRH IC50
Procedure: All compounds were diluted in 1% DMSO (final assay concentration) in binding assay buffer. […] Reactions were terminated by rapid filtration onto 96-well Packard GF/C filters soaked in 0.1% polyethyleneimine. Filters were washed three times with PBS buffer, dried and counted on a Packard Topcount by liquid scintillation counting.
Assay conditions were identical for assessing compound activities at other species. […] IC50 values for control peptides and test compounds were calculated utilizing GraphPad Prism™ software.
Crude compounds were tested using the competitive radioligand binding assay described above.
The reaction mixture was vortexed and incubated for 1 min at room temperature. After one min, the mixture was vortexed and allowed to incubate for an additional minute. 2 ml of 0.5 M acetic acid/1% BSA was added to the reaction tube and the mixture was added to a C18 Sep-Pak cartridge. The cartridge was washed with subsequent washes of 5 ml H2O and 5 ml 0.5M acetic acid and then eluted with 5×1 ml of 60% CH3CN/40% 0.5M acetic acid. The eluate was diluted with 3× volume of HPLC buffer A (0.1% TFA in H2O) and loaded onto a C18 column. The iodinated product was eluted over 20-25 min with a gradient of 25-100% CH3CN containing 0.1% TFA. The radioactive fractions (750 ed/fraction) are collected into clean polypropylene tubes containing 100 μl of 10% BSA. Fractions were assessed for biological activity by radioligand binding.
S%R is the substrate remaining.

[1] = 1 uM, read-out: % Inhib. @ 1 uM hGnRH
[2] = 1 h, repeat of % Inhib. at 1 uM, read-out: Repeats @ 1 uM hGnRH

Cc1cc2c(cc1Cc1ccc(C(=O)N[C@H](C)[C@@H](O)c3ccccc3)o1)C(C)(C)CCC2(C)C
inhibition at 1 µM [1]: 19% | inhibition at 1 µM [2]: 25%

Cc1cc2c(cc1Cc1ccc(C(=O)NCc3ccccc3C(F)(F)F)o1)C(C)(C)CCC2(C)C [drawing 997]
inhibition at 1 µM [1]: 11% | inhibition at 1 µM [2]: 6%

Cc1cc2c(cc1Cc1ccc(C(=O)NCC(=O)Nc3ccc([N+](=O)[O-])cc3)o1)C(C)(C)CCC2(C)C [drawing 1022]
inhibition at 1 µM [1]: 83% | inhibition at 1 µM [2]: 86%

Cc1cc2c(cc1Cc1ccc(C(=O)Nc3c(C)cccc3C)o1)C(C)(C)CCC2(C)C [Compound 397]
remaining activity at 10 µM (1 h): 43%

Cc1cc2c(cc1Cc1ccc(C(=O)NCCc3ccccc3Oc3ccccc3)o1)C(C)(C)CCC2(C)C [drawing 1040]
inhibition at 1 µM [1]: -11% | inhibition at 1 µM [2]: -8%

Cc1cc2c(cc1Cc1ccc(C(=O)NC(CO)CC3CCCCC3)o1)C(C)(C)CCC2(C)C (centres unmarked) [drawing 1215]
inhibition at 1 µM [1]: 10% | inhibition at 1 µM [2]: 2%

Cc1cc2c(cc1Cc1ccc(C(=O)NC3COC(C)(C)O[C@H]3c3ccccc3)o1)C(C)(C)CCC2(C)C (some centres unmarked)
inhibition at 1 µM [1]: -6% | inhibition at 1 µM [2]: 0%

Cc1cc2c(cc1Cc1ccc(C(=O)NCCc3ccccc3Cl)o1)C(C)(C)CCC2(C)C [Compound 418]
remaining activity at 1 µM (1 h): 42%

Cc1cc2c(cc1Cc1ccc(C(=O)Nc3cccc(CO)c3)o1)C(C)(C)CCC2(C)C [Compound 322]
remaining activity at 10 µM (1 h): 4%

Cc1cc2c(cc1Cc1ccc(C(=O)NCc3cccc(CNc4cc(Cl)nc(N)n4)c3)o1)C(C)(C)CCC2(C)C [Compound 145]
IC50: 200 nM

Cc1cc2c(cc1Cc1ccc(C(=O)NC3CCCc4ccccc43)o1)C(C)(C)CCC2(C)C (centres unmarked) [drawing 1127]
inhibition at 1 µM [1]: 14% | inhibition at 1 µM [2]: 27%

COc1ccc(OC)c(Cc2ccc(C(=O)Nc3c(OC)cc(OC)cc3OC)o2)c1 [Compound 186]
IC50: 7310 nM

Cc1cc2c(cc1Cc1ccc(C(=O)NCc3ccc(Cl)cc3Cl)o1)C(C)(C)CCC2(C)C [drawing 1133]
inhibition at 1 µM [1]: 53% | inhibition at 1 µM [2]: 64%

Cc1cc2c(cc1Cc1ccc(C(=O)NCc3cccc(C)c3C)o1)C(C)(C)CCC2(C)C [drawing 1192]
inhibition at 1 µM [1]: 81% | inhibition at 1 µM [2]: 85%

Cc1cc2c(cc1Cc1ccc(C(=O)Nc3ccccc3O)o1)C(C)(C)CCC2(C)C [Compound 342]
remaining activity at 10 µM (1 h): 45%

Cc1cc2c(cc1Cc1ccc(C(=O)NCc3cccc(CNc4ncnc5c(C)csc45)c3)o1)C(C)(C)CCC2(C)C [Compound 149]
IC50: 360 nM

Cc1cc2c(cc1Cc1ccc(C(=O)Nc3nccs3)o1)C(C)(C)CCC2(C)C [Compound 334]
remaining activity at 10 µM (1 h): 34%

CCN(CC)S(=O)(=O)c1ccc(OC)c(NC(=O)c2ccc(Cc3cc4c(cc3C)C(C)(C)CCC4(C)C)o2)c1 [Compound 26]
IC50: 1010 nM

Cc1cc2c(cc1Cc1ccc(C(=O)NC(c3ccccc3)C(O)c3ccccc3)o1)C(C)(C)CCC2(C)C (centres unmarked) [drawing 1073]
% Inhib. @ 1 uM hGnRH (1 uM): −11% | Repeats @ 1 uM hGnRH (repeat of % Inhib. at 1 uM): −8

Cc1cc2c(cc1Cc1ccc(C(=O)NCCOc3ccccc3)o1)C(C)(C)CCC2(C)C [Compound 438]
remaining activity at 1 µM (1 h): 7%

Cc1cc2c(cc1Cc1ccc(C(=O)NC[C@H]3CC[C@H](CNc4ccnc(NC[C@H]5CCCO5)n4)CC3)o1)C(C)(C)CCC2(C)C [Compound 178]
IC50: 185 nM

CNc1ccccc1NC(=O)c1ccc(Cc2cc3c(cc2C)C(C)(C)CCC3(C)C)o1 [Compound 167]
IC50: 7640 nM

Cc1cc2c(cc1Cc1ccc(C(=O)Nc3c(C)cccc3O)o1)C(C)(C)CCC2(C)C [Compound 373]
remaining activity at 10 µM (1 h): 19%

Cc1cc2c(cc1Cc1ccc(C(=O)NCc3ccc(N(C)C)cc3)o1)C(C)(C)CCC2(C)C [Compound 447]
remaining activity at 1 µM (1 h): 18%

Cc1cc2c(cc1Cc1ccc(C(=O)NCCc3cccs3)o1)C(C)(C)CCC2(C)C [drawing 1023]
inhibition at 1 µM [1]: 63% | inhibition at 1 µM [2]: 64%

Cc1cc2c(cc1Cc1ccc(C(=O)NCCc3ccccc3Cl)o1)C(C)(C)CCC2(C)C [Compound 55]
IC50: 570 nM

Cc1cc2c(cc1Cc1ccc(C(=O)NCc3nc4ccccc4[nH]3)o1)C(C)(C)CCC2(C)C [drawing 1060]
% Inhib. @ 1 uM hGnRH (1 uM): 101% | Repeats @ 1 uM hGnRH (repeat of % Inhib. at 1 uM): 99

COc1ccc(CNC(=O)c2ccc(Cc3cc4c(cc3C)C(C)(C)CCC4(C)C)o2)cc1OC [drawing 1095]
inhibition at 1 µM [1]: 69% | inhibition at 1 µM [2]: 75%

Cc1cc2c(cc1Cc1ccc(C(=O)N3CCN(c4cnccn4)CC3)o1)C(C)(C)CCC2(C)C
inhibition at 1 µM [1]: 3% | inhibition at 1 µM [2]: 7%

COc1ccccc1CNC(=O)c1ccc(Cc2cc3c(cc2C)C(C)(C)CCC3(C)C)o1 [drawing 1078]
inhibition at 1 µM [1]: 86% | inhibition at 1 µM [2]: 88%

Cc1cc2c(cc1Cc1ccc(C(=O)Nc3cc(CO)ccc3C)o1)C(C)(C)CCC2(C)C [Compound 372]
remaining activity at 10 µM (1 h): 1%

COc1cccc(C)c1NC(=O)c1ccc(Cc2cc3c(cc2C)C(C)(C)CCC3(C)C)o1 [Compound 61]
IC50: 760 nM

Cc1cc2c(cc1Cc1ccc(C(=O)N3CCN(c4ncccn4)CC3)o1)C(C)(C)CCC2(C)C [drawing 1124]
inhibition at 1 µM [1]: -2% | inhibition at 1 µM [2]: 3%

Cc1cc2c(cc1Cc1ccc(C(=O)N(C)Cc3ccccc3Cl)o1)C(C)(C)CCC2(C)C
inhibition at 1 µM [1]: 14% | inhibition at 1 µM [2]: 21%

COC(=O)CCCCCNC(=O)c1ccc(Cc2cc3c(cc2C)C(C)(C)CCC3(C)C)o1 [drawing 1059]
inhibition at 1 µM [1]: 85% | inhibition at 1 µM [2]: 85%

Cc1cc2c(cc1Cc1ccc(C(=O)N(CCCO)Cc3ccccn3)o1)C(C)(C)CCC2(C)C [drawing 1107]
inhibition at 1 µM [1]: -4% | inhibition at 1 µM [2]: 0%

COc1cc(CNC(=O)c2ccc(Cc3cc4c(cc3C)C(C)(C)CCC4(C)C)o2)ccc1O [drawing 1222]
inhibition at 1 µM [1]: 54% | inhibition at 1 µM [2]: 54%

Cc1cc2c(cc1Cc1ccc(C(=O)N3CCN(c4ccccc4)CC3)o1)C(C)(C)CCC2(C)C [drawing 1092]
% Inhib. @ 1 uM hGnRH (1 uM): −1% | inhibition at 1 µM [2]: 6%

Cc1cc2c(cc1Cc1ccc(C(=O)N3CCN(c4ccccc4[N+](=O)[O-])CC3)o1)C(C)(C)CCC2(C)C
inhibition at 1 µM [1]: -15% | inhibition at 1 µM [2]: -20%

Cc1cc2c(cc1Cc1ccc(C(=O)NCCCC(=O)NC(c3ccccc3)c3ccccc3)o1)C(C)(C)CCC2(C)C
inhibition at 1 µM [1]: 17% | inhibition at 1 µM [2]: 28%

COc1cc(OC)c(NC(=O)c2ccc(Cc3cc4c(cc3C)C(C)(C)CCC4(C)C)n2Cc2ccccc2)c(OC)c1 [Compound 224]
IC50: > 10000 nM

Cc1cc2c(cc1Cc1ccc(C(=O)NCCO)o1)C(C)(C)CCC2(C)C [drawing 1178]
inhibition at 1 µM [1]: 1% | inhibition at 1 µM [2]: 1%

COc1cc(OC)c(Cc2ccc(C(=O)Nc3c(OC)cccc3OC)o2)c(OC)c1 [Compound 220]
IC50: 630 nM

Cc1cc2c(cc1Cc1ccc(C(=O)N(CCCO)Cc3ccccc3[N+](=O)[O-])o1)C(C)(C)CCC2(C)C
inhibition at 1 µM [1]: -5% | inhibition at 1 µM [2]: 6%

Cc1cc2c(cc1Cc1ccc(C(=O)Nc3ccc4c(c3)OCO4)o1)C(C)(C)CCC2(C)C [Compound 367]
remaining activity at 10 µM (1 h): 15%

CCCCN(Cc1ccccc1)C(=O)c1ccc(Cc2cc3c(cc2C)C(C)(C)CCC3(C)C)o1
inhibition at 1 µM [1]: -7% | inhibition at 1 µM [2]: 9%

COc1ccc(C(=O)CNC(=O)c2ccc(Cc3cc4c(cc3C)C(C)(C)CCC4(C)C)o2)cc1 [drawing 1056]
inhibition at 1 µM [1]: 21% | inhibition at 1 µM [2]: 23%
